The source made the active and inactive calls. The rule behind the calls is not given here.
Legend:
HeLa S3 = experiment: Cytostatic activity against human HeLaS3 cells assessed as cell viability after 6 days by XTT assay; assay type: functional, cell-based; conditions: HeLa S3, 144 h
Hepatitis C virus [1] = experiment: Antiviral activity against HCV2A; assay type: functional, organism-based; conditions: Hepacivirus hominis; genotype 2a
[2] = Antiviral activity against RSV; assay type: functional, organism-based
A549 = experiment: Cytostatic activity against human A549 cells after 3 days by MTT assay; assay type: functional, cell-based; conditions: A549, 72 h
[3] = Cytostatic activity against human CEM/DNR cells after 3 days by MTT assay; assay type: functional, cell-based; conditions: 72 h
MRC5 = experiment: Cytostatic activity against human MRC5 cells after 3 days by MTT assay; assay type: ADME, cell-based; conditions: MRC5, 72 h
HepG2 = experiment: Cytostatic activity against human HepG2 cells assessed as cell viability after 6 days by XTT assay; assay type: functional, cell-based; conditions: HepG2, 144 h
Candida = experiment: Antifungal activity against Candida sp.; assay type: functional, organism-based
HL-60 = experiment: Cytostatic activity against human HL60 cells assessed as cell viability after 6 days by XTT assay; assay type: functional, cell-based; conditions: HL-60, 144 h
[4] = Cytostatic activity against human HCT116 cells after 3 days by MTT assay; assay type: functional, cell-based; conditions: HCT-116, 72 h
[5] = Cytostatic activity against p53 deficient human HCT116 cells after 3 days by MTT assay; assay type: functional, cell-based; conditions: HCT-116, 72 h
BJ = experiment: Cytostatic activity against human BJ cells after 3 days by MTT assay; assay type: ADME, cell-based; conditions: 72 h
CCRF-CEM = experiment: Cytostatic activity against human CCRF-CEM cells after 3 days by MTT assay; assay type: functional, cell-based; conditions: 72 h
Hepatitis C virus [6] = experiment: Antiviral activity against HCV1B; assay type: functional, organism-based; conditions: Hepacivirus hominis; genotype 1b
K562 = experiment: Cytostatic activity against human K562 cells after 3 days by MTT assay; assay type: functional, cell-based; conditions: K562, 72 h
[7] = Cytostatic activity against human K562-TAX cells after 3 days by MTT assay; assay type: functional, cell-based; conditions: 72 h

Compound | IC50 (HeLa S3) [µM] | IC50 (A549) [µM] | IC50 (HepG2) [µM] | IC50 (HL-60) [µM] | IC50 (CCRF-CEM) [µM] | IC50 (K562) [µM] | Activity (Hepatitis C virus [1]) | Activity [2] | IC50 [3] [µM] | IC50 (MRC5) [µM] | Activity (Candida) | IC50 [4] [µM] | IC50 [5] [µM] | IC50 (BJ) [µM] | Activity (Hepatitis C virus [6]) | IC50 [7] [µM]
CNc1ncnc2[nH]cc(Sc3cccs3)c12 | 17.6 | 28.6 | > 25 | 13.5 | 14.7 | 4.95 | inactive | inactive | 26.2 | 148 | inactive | 19 | 45.3 | 132 | inactive | 21
Nc1ncnc2c1c(Sc1ccccc1)cn2[C@@H]1O[C@H](CO)[C@@H](O)[C@H]1O | > 25 | 22.9 | > 25 | > 25 | 34 | 23.1 | inactive | inactive | > 50 | 67.7 | inactive | 20.8 | 22.4 | 67.9 | inactive | 29.6
CN(C)c1ncnc2[nH]cc(Sc3cccs3)c12 | > 25 | 19.8 | > 25 | > 25 | 14.6 | 3.83 | inactive | inactive | 35.2 | > 150 | inactive | 11 | 27.5 | 145 | inactive | 22.1
Nc1ncnc2c1c(Sc1cccs1)cn2[C@@H]1O[C@H](CO)[C@@H](O)[C@H]1O | > 25 | 43.8 | > 25 | > 25 | 64.7 | 23.4 | inactive | inactive | > 100 | 138 | inactive | 36.7 | 23.2 | 93.6 | inactive | 55.8
Nc1ncnc2[nH]cc(Sc3cccs3)c12 | 17.9 | 22.8 | > 25 | 13.9 | 16.7 | 17.9 | inactive | inactive | 20.3 | 136 | inactive | 22.8 | > 50 | > 150 | inactive | 17.9

More lines, main results first:

IC50 (HeLa S3) [µM] | IC50 (A549) [µM] | IC50 (HepG2) [µM] | IC50 (HL-60) [µM] | IC50 (CCRF-CEM) [µM] | IC50 (K562) [µM] | Compound | Activity (Hepatitis C virus [1]) | Activity [2] | IC50 [3] [µM] | IC50 (MRC5) [µM] | Activity (Candida) | IC50 [4] [µM] | IC50 [5] [µM] | IC50 (BJ) [µM] | Activity (Hepatitis C virus [6]) | IC50 [7] [µM]
> 25 | 16.2 | > 25 | 21.1 | 10.6 | 5.14 | c1csc(Sc2c[nH]c3ncnc(-c4cccs4)c23)c1 | inactive | inactive | 17.7 | 54.5 | inactive | 13 | 5.06 | 23.4 | inactive | 21.7
23.9 | 21.5 | > 25 | > 25 | 18.2 | > 50 | COc1ncnc2[nH]cc(Sc3cccs3)c12 | inactive | inactive | > 50 | 148 | inactive | 17.2 | > 50 | 123 | inactive | 44
> 25 | > 50 | > 25 | > 25 | > 50 | 14 | Cc1ncnc2[nH]cc(Sc3cccs3)c12 | inactive | inactive | > 50 | 136 | inactive | 38.1 | 29.1 | > 150 | inactive | 64.6
8.49 | 11.4 | > 25 | 7.63 | 7.73 | 4.26 | c1coc(-c2ncnc3[nH]cc(Sc4cccs4)c23)c1 | inactive | inactive | 20.8 | 32.9 | inactive | 6.75 | 19.5 | 22.1 | inactive | 18.9
